In PMC4977651, “Molecular features of biguanides required for targeting of mitochondrial respiratory complex I and activation of AMP-kinase” (BMC Biology, 2016):
“And” between values parts separate entries of the source, which are not always exact repeats. Equal values may be shown once.

Columns and labels:
[1] = test system: AMPK-α (phospho-Thr172); experiment: AMPK activation, western blot of phospho-AMPK-α in MDBK cells; assay type: cell-based, Bos taurus; details: for p-alpha, average normalised to control: Averages of experiments 1-3, 18 hours; for p-alpha: band intensity
Experimental: (§1) MDBK cells were seeded at 1 × 10^6 cells per 6 cm dish in DMEM containing 10 % FBS. […] After 18 h cells were harvested by a rapid lysis procedure: cells were rinsed with PBS, then lysed using ice-cold buffer containing 50 mM HEPES, 1 mM EDTA, 10 % glycerol, 50 mM NaF, 5 mM sodium pyrophosphate, 1 % Triton-X100, 1 mM dithiothreitol (DTT), and a protease inhibitor cocktail (Roche). The cell lysate was centrifuged at 14,000 × g for 20 min at 4 °C and the protein concentration of the supernatant determined by bicinchoninic acid assay. The lysate was analyzed using Novex 3–12 % bis-Tris gels run in 3-(N-morpholino)propanesulfonic acid (MOPS) buffer (20 μg of protein per lane) followed by transfer to low fluorescence polyvinylidene fluoride membranes by wet transfer. Primary rabbit antibodies for AMPK-β (57C12), AMPK-α (phospho-Thr172) (40H9), and acetyl-coA carboxylase (phospho-Ser79) (Cell Signaling Technology) were incubated overnight with the membrane (1:1000 dilution) in Odyssey blocking buffer at 4 °C. A fluorescent secondary antibody was used (IRDYE800CW from LI-COR Biosciences, 1:20,000 dilution) with a LI-COR Odyssey imaging system.

[2] = test system: bovine mitochondrial membranes (complexes II-III-IV); experiment: Succinate:O2 oxidoreduction (complexes II-III-IV, complex II assay) by bovine mitochondrial membranes; assay type: biochemical, Bos taurus; details: biguanide concentrations set to the IC50 values for NADH:O2 on bovine membranes; control = 100.00; n = 3
Experimental: Assays were performed at 32 °C in a SpectraMax 96-well plate reader. NADH:decylubiquinone oxidoreduction by complex I at 0.5 μg mL^−1 was measured in 20 mM Tris-HCl (pH 7.2), 0.15 % soy bean asolectin (Avanti Polar Lipids), and 0.15 % 3-((3-cholamidopropyl)dimethylammonium)-1-propanesulfonate (CHAPS, Merck Chemicals Ltd), with 200 μM decylubiquinone and 200 μM NADH, and monitored using ε340–380(NADH) = 4.81 mM^−1 cm^−1 [23]. Catalysis was initiated by addition of NADH and maximal rates determined by linear regression. NADH:O2 oxidoreduction by membranes was measured similarly but using 5 μg mL^−1 membranes in 10 mM Tris-HCl (pH 7.4) and 250 mM sucrose using 200 μM NADH and supplemented with 0.15 mM horse heart cytochrome c (Sigma-Aldrich Ltd.). Succinate:O2 oxidoreduction was measured using 40 μg mL^−1 membranes in 5 mM succinate in 10 mM Tris-HCl (pH 7.4) as described previously. Control experiments included NaCl (to match the ionic strength) or DMSO, as appropriate.

[3] = test system: acetyl-coA carboxylase (phospho-Ser79); experiment: AMPK activation, western blot of phospho-acetyl-coA carboxylase in MDBK cells; assay type: cell-based, Bos taurus; details: for ACC, average normalised to control: Averages of experiments 1-3, 18 hours; for p-ACC: band intensity
Experimental: as §1

[4] = test system: mouse heart mitochondria; experiment: ADP-stimulated rotenone-sensitive OCR in isolated mouse heart mitochondria; assay type: biochemical; design: rotenone sensitive OCR after ADP stimulation, individual replicates / rotenone sensitive OCR after ADP stimulation, average / rotenone sensitive OCR after 15 mins, average: unit not given here; details: for rotenone sensitive OCR after ADP stimulation, % of control, average / rotenone sensitive OCR after ADP stimulation, average: average of replicates; for rotenone sensitive OCR after ADP stimulation, % of control, individual replicates: replicate 1-11; for rotenone sensitive OCR after ADP stimulation, individual replicates: replicate 1-12
Experimental: Complex I and mitochondrial membranes were prepared from Bos taurus (bovine) heart. Intact mitochondria were isolated from rat liver and mouse heart and liver. Membranes were prepared from mouse heart mitochondria by 5 s bursts of sonication at 4 °C and collected by centrifugation (75,000 × g, 1 h).
Isolated mitochondria were monitored using a Seahorse XF96 extracellular flux analyzer at 32 °C. Mouse heart mitochondria, and mouse and rat liver mitochondria were plated into XF96 plates at 4 and 16–20 μg per well, respectively, in 220 mM mannitol, 70 mM sucrose, 10 mM KH2PO4, 5 mM MgCl2, 1 mM EGTA, 0.2 % fatty acid-free BSA, and 2 mM HEPES (pH 7.4 at 37 °C) with 10 mM glutamate and 10 mM malate and adhered by centrifugation (2000 × g, 20 min, 4 °C). The medium was supplemented with a further 5 mM glutamate and 5 mM malate and the mitochondria incubated for 15 min. Then two baseline readings were taken before the biguanides were added at IC50/5. […] Rotenone (2 μM) was added at the end of the experiment. Data from wells with failed port injections were excluded from the analyses. The RCR values (state III versus state IV respiration) were 3.4, 4.8, and 4.6 for mouse heart, rat liver, and mouse liver, respectively.

[5] = test system: permeabilized 143B cells; experiment: ADP-stimulated rotenone-sensitive OCR in permeabilized 143B cells; assay type: cell-based, human; design: rotenone sensitive OCR after ADP stimulation, individual replicates / rotenone sensitive OCR after ADP stimulation, average: unit not given here; details: for rotenone sensitive OCR after ADP stimulation, % of control, individual replicates / rotenone sensitive OCR after ADP stimulation, individual replicates: replicate 1-11
Experimental: For permeabilized cell experiments, cells were seeded into XF96 plates at 0.9–1.1 × 10^4 per well and incubated for 48 h at 37 °C in 5 % CO2. Then, the growth medium was exchanged for assay buffer containing 3 nM plasma membrane permeabilizer ‘PMP’ (Seahorse Biosciences Inc.), 10 mM glutamate, 10 mM malate, 220 mM mannitol, 70 mM sucrose, 10 mM KH2PO4, 5 mM MgCl2, 1 mM EGTA, 0.2 % fatty acid-free bovine serum albumin (BSA), and 2 mM HEPES (pH 7.4 at 37 °C). […] The biguanides were allowed to accumulate for 30 min, then respiration was […] by the addition of 4 mM ADP. Rotenone was added (2 μM) at the end of the experiment.
Rotenone-sensitive OCRs were calculated by subtracting the rotenone-insensitive rates (determined at the end of the experiment). OCRs were normalized by dividing by the OCR recorded immediately prior to the addition of biguanide. For rate of uptake calculations, the OCRs at time points after biguanide addition were divided by the OCRs at the same time points in control experiments. Data from wells with failed port injections were excluded from the analyses. The respiratory control ratio (RCR) values (state III versus state IV respiration) were ~11 and ~6 for permeabilized MDBK and 143B cells, respectively.

[6] = 143B permeabilised cells, average of replicates

Structure (SMILES)	p-alpha, average normalised to control [1]	p-alpha / AMPK beta ([1]; Experiment 1, 18 hours)	p-alpha / AMPK beta normalised to control ([1]; Experiment 1, 18 hours)	p-alpha ([1]; Experiment 1, 18 hours)	p-alpha / AMPK beta ([1]; Experiment 2, 18 hours)	p-alpha / AMPK beta normalised to control ([1]; Experiment 2, 18 hours)	p-alpha ([1]; Experiment 2, 18 hours)	p-alpha / AMPK beta ([1]; Experiment 3, 18 hours)	p-alpha / AMPK beta normalised to control ([1]; Experiment 3, 18 hours)	p-alpha ([1]; Experiment 3, 18 hours)	Complex II assay (succinate:O2 oxidoreduction), average [2]	ACC, average normalised to control [3]	p-ACC / AMPK beta ([3]; Experiment 1, 18 hours)	p-ACC / AMPK beta normalised to control ([3]; Experiment 1, 18 hours)	p-ACC ([3]; Experiment 1, 18 hours)	p-ACC / AMPK beta ([3]; Experiment 2, 18 hours)	p-ACC / AMPK beta normalised to control ([3]; Experiment 2, 18 hours)	p-ACC ([3]; Experiment 2, 18 hours)	p-ACC / AMPK beta ([3]; Experiment 3, 18 hours)	p-ACC / AMPK beta normalised to control ([3]; Experiment 3, 18 hours)	also measured
CC(C)N=C(N)N=C(N)NC(C)C [compound 5, N-(propan-2-yl)-1-3-(propan-2-yl)carbamimidamidomethanimidamide]	1.21	0.13	1.05	62.5	0.17	1.19	52.5	0.29	1.38	51.1	100.71	1.36	0.27	1.41	131	0.23	1.44	70.3	0.36	1.22	p-ACC ([3]; Experiment 3, 18 hours): 64.6; rotenone sensitive OCR after ADP stimulation, % of control, average [4]: 111.59 % of control; rotenone sensitive OCR after ADP stimulation, average [4]: 270.26; rotenone sensitive OCR after ADP stimulation, % of control, individual replicates [4]: 121.74 % of control and 137.11 % of control and 79.19 % of control and 109.33 % of control and 124.83 % of control and 108.07 % of control and 108.05 % of control and 104.41 % of control; rotenone sensitive OCR after ADP stimulation, individual replicates [4]: 294.85 and 332.07 and 191.79 and 264.79 and 302.34 and 261.73 and 261.69 and 252.86; rotenone sensitive OCR after ADP stimulation, % of control, average [5, 6]: 45.65 % of control; rotenone sensitive OCR after ADP stimulation, average [5, 6]: 108.98; rotenone sensitive OCR after ADP stimulation, % of control, individual replicates ([5]; 143B permeabilised cells): 36.39 % of control and 47.66 % of control and 76.44 % of control and 36.22 % of control and 38.53 % of control and 52.52 % of control and 38.52 % of control and 38.94 % of control; rotenone sensitive OCR after ADP stimulation, individual replicates ([5]; 143B permeabilised cells): 86.86 and 113.77 and 182.47 and 86.47 and 91.97 and 125.38 and 91.96 and 92.95; inhibition of the OCR (in words) ([5]; permeabilized 143B cells, biguanide concentration equal to IC50): only limited inhibition
[H]/N=C(/N)N/C(=N/[H])NCCc1ccccc1 [phenformin, reference compound]	3.64	0.44	3.54	203	0.63	4.29	234	0.64	3.08	154	95.51	7.37	1.27	6.56	586	1.60	9.93	598	1.68	5.62	AMPK activation (in words) ([1]; 18-h treatment, IC50/10 biguanide concentrations): slightly lower activation; p-ACC ([3]; Experiment 3, 18 hours): 404; rotenone sensitive OCR after 15 mins, average ([4]; ADP and phenformin added simultaneously, n = 8): 418.601; rotenone sensitive OCR after 15 mins, % control (no phenformin) ([4]; ADP and phenformin added simultaneously, n = 8 with phenformin, n = 6 control): 85 ± 10 % control and 85.2397 % control; rotenone sensitive OCR after ADP stimulation, % of control, average [4]: 30.06 % of control; rotenone sensitive OCR after ADP stimulation, average [4]: 73.69; oxygen consumption, % of the control value ([4]; phenformin at IC50/5 accumulated in the absence of ADP before ADP stimulation): 30%; rotenone sensitive OCR after ADP stimulation, % of control, individual replicates [4]: 34.41 % of control and 27.92 % of control and 37.45 % of control and 23.80 % of control and 31.47 % of control and 29.88 % of control and 25.27 % of control and 30.29 % of control; rotenone sensitive OCR after ADP stimulation, individual replicates [4]: 84.35 and 68.44 and 91.80 and 58.33 and 77.13 and 73.26 and 61.95 and 74.26; rotenone sensitive OCR after ADP stimulation, % of control, individual replicates ([5]; 143B permeabilised cells): 10.68 % of control and 13.07 % of control and 7.19 % of control and 19.54 % of control and 11.54 % of control and 11.56 % of control and 7.70 % of control and 13.62 % of control and 4.19 % of control and 11.40 % of control and 4.31 % of control; rotenone sensitive OCR after ADP stimulation, individual replicates ([5]; 143B permeabilised cells): 25.49 and 31.21 and 17.16 and 46.64 and 27.56 and 27.59 and 18.38 and 32.52 and 10.00 and 27.22 and 10.30
